In brackets after ≈: the same amount, converted by molar mass.

Conditions in the first series: not given
`O=S(=O)(O)OCCOc1ccc(Cl)cc1Cl` came in with a solubility of 871000 µM (≈ 250000 µg/mL). That is a millimolar value.

Still in this series, the particulars now being: 20 °C.
`Clc1ccc(Sc2cc(Cl)c(Cl)cc2Cl)cc1` came in with a solubility of 0.0926 µM (≈ 0.03 µg/mL). On to `Cc1cc(Cl)ccc1NC(=S)N(C)C`, for which the solubility was found to be 219 µM (≈ 50 µg/mL). Compound `CC(=O)OC[C@H]([C@H](OC(C)=O)c1ccccc1)[N+](=O)[O-]` had a solubility of 107 µM (≈ 30 µg/mL). Compared with the last compound, the solubility is about 2-fold lower. On the same count and under the same terms, as for `CCS(=O)(=O)c1nnc(N(C)C(=O)NC)s1`, the figure is 11400 µM (≈ 3000 µg/mL); as for `CON(C(=O)c1cc(C)oc1C)C1CCCCC1`, 1.19 µM (≈ 0.3 µg/mL).

Staying with this series, now noted: 25 °C.
The compound `O=C1OCCC1N(C(=O)C1CC1)c1cccc(Cl)c1` (stereo not given) yielded a solubility of 2050 µM (≈ 574 µg/mL). This counts as millimolar. Same read-out and setting: next, `CCN(C(=O)Oc1cccc(NC(=O)OC(C)C)c1)c1ccccc1`: 8.76 µM (≈ 3 µg/mL); `CCOC(=O)CNc1nc(Cl)nc(NC(C)C)n1`: 2740 µM (≈ 750 µg/mL); `CCOC(=O)C(C)Oc1ccc(Oc2nc3ccc(Cl)cc3o2)cc1` (stereo not given): 2.59 µM (≈ 0.937 µg/mL).

For orientation: solubility means the concentration that dissolves in the medium under given conditions.
